The source of these data is ChEMBL document CHEMBL1201862, “PubChem BioAssay data set” (2004).

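How tested: cells in 96-well plates exposed to compound for 48 hours at five concentrations. The concentration for 50% growth inhibition is given as GI50.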 The source made the active and inactive calls. Cut-off read from the data, not from the text of the source: active = GI50 up to about 1.1 µM and inactive = higher. Where only a bound is given, the exact number is not on record here.

Test systems include MOLT-4; M14; A549; MCF7; UO-31; HCC 2998; MDA-MB-435; K562; SK-OV-3; TK-10; COLO 205; HOP-62; NCI-H522; SN12C; SW-620; NCI-H460; LOX IMVI; SF-295; MDA-N; OVCAR-3.
Assay in all cases: NCI anticancer screen, dose series, 48 h

For the molecule `CCN(CCCl)c1cc(CN(C)C)cc(NC(=O)c2ccc(C(=O)Nc3ccccc3)cc2)c1`, the GI50 with MOLT-4 was 0.284 µM (active); in the assay on M14, 0.883 µM (active); in the assay on A549, 0.42 µM (active); in the assay with MCF7, 0.232 µM (active); in the assay on UO-31, 1.91 µM (inactive); in the assay on HCC 2998, 0.789 µM (active). Besides, the GI50 is 0.239 µM (active) in the assay on MDA-MB-435; 0.406 µM (active) with K562; 0.971 µM (active) in the assay on SK-OV-3; 3.02 µM (inactive) in the assay with TK-10; 1.04 µM (active) with COLO 205; 0.314 µM (active) in the assay on HOP-62. In addition, the GI50 in the assay with NCI-H522 is 0.109 µM (active); in the assay with SN12C, 0.767 µM (active); in the assay on SW-620, 0.15 µM (active); with NCI-H460, 0.275 µM (active); in the assay with LOX IMVI, 0.204 µM (active); with SF-295 it was 0.348 µM (active). Besides, the GI50 in the assay with MDA-N was 0.298 µM (active).
`CC(=O)Nc1ccccc1SCCSSCCSc1ccccc1NC(C)=O`: the GI50 in the assay with MOLT-4 was 24 µM (inactive); in the assay on M14, 31.5 µM (inactive); in the assay with A549 it was 25.7 µM (inactive); in the assay with MCF7, 38.9 µM (inactive); in the assay with UO-31 it was 17.8 µM (inactive); in the assay with HCC 2998 it was 22.3 µM (inactive). In addition, the GI50 is 19.5 µM (inactive) with MDA-MB-435; 28.8 µM (inactive) in the assay on OVCAR-3; 28.6 µM (inactive) in the assay with K562; 27.8 µM (inactive) in the assay with SK-OV-3; 34.1 µM (inactive) in the assay with TK-10; 20.4 µM (inactive) with COLO 205. Also, the GI50 in the assay on HOP-62 is 58.6 µM (inactive); with NCI-H522, 16.8 µM (inactive); in the assay on SN12C, 32.4 µM (inactive); in the assay with SW-620, 39.3 µM (inactive); in the assay on NCI-H460 it was 25.1 µM (inactive); with LOX IMVI, 20 µM (inactive). For the same molecule, the GI50 in the assay on SF-295 was 26.7 µM (inactive); with MDA-N, 25.4 µM (inactive).
`CO[C@@H]1[C@H](OC(=O)NC(=O)CCl)CC[C@]2(CO2)[C@H]1[C@@]1(C)O[C@@H]1CC=C(C)C` [O-CHLOROACETYLCARBAMOYLFUMAGILLOL]: the GI50 in the assay on MOLT-4 was 6.56 µM (inactive); in the assay with M14, 5.51 µM (inactive); in the assay with A549 it was 7.23 µM (inactive); with MCF7, 12.4 µM (inactive); in the assay with UO-31 it was 9.89 µM (inactive); in the assay with HCC 2998, 5.81 µM (inactive). Moreover, the GI50 in the assay on MDA-MB-435 is 11.7 µM (inactive); in the assay on OVCAR-3 it was 3.49 µM (inactive); in the assay on K562, 12.2 µM (inactive); in the assay with SK-OV-3, 15.3 µM (inactive); in the assay on TK-10, 18.3 µM (inactive); with COLO 205, 14.2 µM (inactive). The GI50 in the assay on HOP-62 was 12.9 µM (inactive); in the assay with NCI-H522, 5.35 µM (inactive); in the assay with SN12C it was 13.7 µM (inactive); with SW-620 it was 9.53 µM (inactive); with NCI-H460, 2.04 µM (inactive); in the assay on LOX IMVI, 5.05 µM (inactive). For the same molecule, the results for the GI50 in the assay on SF-295 and with MDA-N were 5.65 µM (inactive) and 11.4 µM (inactive), respectively.
For `CC(=O)N1CCc2c([nH]c3ccc(Br)cc23)C1c1ccccc1` (stereo not given), the GI50 is 0.697 µM (active) with MOLT-4; > 10 µM (inactive) in the assay on M14; 0.912 µM (active) with A549; 2.75 µM (inactive) in the assay on MCF7; > 10 µM (inactive) in the assay on UO-31; 9.95 µM (inactive) in the assay on HCC 2998. Besides, the GI50 with MDA-MB-435 is 2.69 µM (inactive); in the assay on OVCAR-3, > 10 µM (inactive); in the assay with K562, 0.752 µM (active); in the assay with SK-OV-3, > 7.71 µM (inactive); with TK-10 it was > 10 µM (inactive); in the assay with COLO 205, > 10 µM (inactive). Further, the GI50 in the assay on HOP-62 was 7.55 µM (inactive); in the assay on NCI-H522, > 7.82 µM (inactive); with SW-620, 2.62 µM (inactive); in the assay on NCI-H460, 0.522 µM (active); in the assay with LOX IMVI it was 2 µM (inactive); in the assay on SF-295, 2.4 µM (inactive). For the same molecule, the GI50 with MDA-N was 2.61 µM (inactive).
For `COC(=O)/C(C)=N/N=C(\S)SC`, the GI50 with MOLT-4 was 55.1 µM (inactive); with M14, 23.2 µM (inactive); in the assay on MCF7, 35.4 µM (inactive); with UO-31, 36.7 µM (inactive); in the assay on HCC 2998 it was 40.6 µM (inactive); with MDA-MB-435 it was 60.5 µM (inactive). Also, the GI50 was 24.8 µM (inactive) in the assay on OVCAR-3; 75 µM (inactive) with K562; > 100 µM (inactive) in the assay with SK-OV-3; 95.5 µM (inactive) with TK-10; > 100 µM (inactive) in the assay on HOP-62; 22.7 µM (inactive) in the assay with NCI-H522. Further, the GI50 with SW-620 was 44.3 µM (inactive); in the assay with NCI-H460 it was 26.9 µM (inactive); with LOX IMVI, 37.2 µM (inactive); in the assay with SF-295 it was 40.2 µM (inactive); with MDA-N it was 77.1 µM (inactive).
Turning to `COC1CC(OC2OC(CO)C(O)C(O)C2O)/C(=C\C#N)C(O)C1OC` (stereo not given), the GI50 in the assay with MOLT-4, in the assay with M14, in the assay on A549, in the assay with MCF7, in the assay on UO-31 and in the assay with HCC 2998 was > 100 µM (inactive) throughout. The GI50 in the assay with MDA-MB-435, in the assay with OVCAR-3, in the assay with SK-OV-3, in the assay with TK-10, with COLO 205 and with HOP-62 was > 100 µM (inactive) throughout. In addition, the GI50 in the assay with NCI-H522, with SN12C, in the assay with SW-620, in the assay on NCI-H460, in the assay on LOX IMVI and with SF-295 was > 100 µM (inactive) each time. In the assay on MDA-N, the GI50 is > 100 µM (inactive).
Turning to `CC1=Nc2ccccc2OC(C)=C1/N=N/c1ccc2[nH]c(C)nc2c1`, the GI50 was > 100 µM (inactive) in the assay on MOLT-4; > 100 µM (inactive) with M14; > 100 µM (inactive) in the assay with A549; 45.8 µM (inactive) in the assay with MCF7; > 100 µM (inactive) in the assay on HCC 2998; > 100 µM (inactive) in the assay with MDA-MB-435. Also, the GI50 with OVCAR-3, in the assay with K562, in the assay with SK-OV-3, with TK-10, in the assay on COLO 205 and with HOP-62 was > 100 µM (inactive) in each case. Also, the GI50 with NCI-H522 was > 100 µM (inactive); in the assay on SN12C it was 84.7 µM (inactive); in the assay with SW-620 it was > 100 µM (inactive); with NCI-H460, 55.2 µM (inactive); in the assay on LOX IMVI, 66.2 µM (inactive); in the assay with SF-295, > 100 µM (inactive). Also, the GI50 with MDA-N is > 100 µM (inactive).
`CCCCNc1c(CN)cnc2cc(Cl)ccc12`: the GI50 was 17 µM (inactive) with MOLT-4; 20 µM (inactive) in the assay with M14; 20.5 µM (inactive) in the assay with A549; 14.5 µM (inactive) in the assay on MCF7; 2.73 µM (inactive) in the assay on HCC 2998; 15.6 µM (inactive) in the assay with MDA-MB-435. For the same molecule, the GI50 was 15 µM (inactive) in the assay with OVCAR-3; 13.9 µM (inactive) in the assay on K562; 14.3 µM (inactive) in the assay with SK-OV-3; 15 µM (inactive) in the assay on TK-10; 7.48 µM (inactive) in the assay on COLO 205; 14.1 µM (inactive) with HOP-62. Besides, the GI50 with NCI-H522 is 18.8 µM (inactive); in the assay on SN12C, 18.4 µM (inactive); with SW-620, 16.3 µM (inactive); with NCI-H460, 13 µM (inactive); in the assay with LOX IMVI, 15.4 µM (inactive); in the assay on SF-295, 14 µM (inactive). Besides, in the assay on MDA-N, the GI50 is 16.1 µM (inactive).
On to `COc1ccc(C#Cn2nnc3ccccc32)cc1`, for which the GI50 is 71.6 µM (inactive) in the assay with MOLT-4; > 100 µM (inactive) in the assay with M14; > 100 µM (inactive) in the assay with A549; 41.8 µM (inactive) in the assay on MCF7; 2.15 µM (inactive) with UO-31; 26.2 µM (inactive) in the assay with HCC 2998. The GI50 with MDA-MB-435 is > 100 µM (inactive); in the assay with OVCAR-3 it was 40.5 µM (inactive); in the assay with K562 it was > 100 µM (inactive); in the assay on TK-10, > 100 µM (inactive); in the assay with COLO 205 it was > 100 µM (inactive); in the assay with HOP-62 it was > 100 µM (inactive). Also, the GI50 in the assay with NCI-H522 was 48 µM (inactive); with SN12C it was > 100 µM (inactive); in the assay on SW-620 it was > 100 µM (inactive); in the assay with NCI-H460 it was > 100 µM (inactive); in the assay with LOX IMVI, > 100 µM (inactive); with SF-295, > 100 µM (inactive). Further, the GI50 in the assay on MDA-N is > 100 µM (inactive).
Regarding `Cc1nn(C(=O)c2ccc(Cl)cc2)c2c1C(c1ccccc1)SC(=N)N2` (stereo not given), the GI50 in the assay on MOLT-4, with M14, in the assay with A549, in the assay with MCF7, with HCC 2998 and in the assay with MDA-MB-435 was > 10 µM (inactive) in each case. The GI50 in the assay on OVCAR-3, in the assay with K562, in the assay on SK-OV-3, in the assay with TK-10, in the assay on COLO 205 and in the assay with HOP-62 was > 10 µM (inactive) each time. Further, the GI50 in the assay on NCI-H522, in the assay on SN12C, in the assay on SW-620, in the assay on NCI-H460, in the assay on LOX IMVI and in the assay on SF-295 was > 10 µM (inactive) each time. The GI50 in the assay with MDA-N was > 10 µM (inactive).
